Series [1] has as its system Daphnia magna. The conditions noted are these: chronic/long-term; duration: 21 days; growth.
The subject of series [2] is Oryctolagus sp. The conditions noted are these: developmental; development.
Series [3] concerns Colinus virginianus.
Series [4] deals with Folsomia candida. The conditions noted are these: chronic/long-term; duration: 28 days.
Series [5] relates to Pimephales promelas. The conditions noted are these: chronic/long-term; duration: 34 days; other.
The test system of series [6] is Oncorhynchus mykiss. Conditions: acute; duration: 96 hours; mortality.
Series [7] relates to Bibionidae. Conditions: chronic/long-term; duration: 28 days.
Series [8] relates to Cyprinodon variegatus. The conditions noted are these: acute; duration: 96 hours; mortality.
Series [9] has as its system Rattus norvegicus. The conditions noted are these: oral.
Series [10] has as its system Apis mellifera. Conditions: acute; duration: 48 hours; oral; unspecified; mortality.
For series [11], the system named is Anas platyrhynchos.
Series [12] concerns Canidae. Conditions: chronic; duration: 1 years; oral; Dog Other; clinical chemistry.
Series [13] concerns Tagia sp.
The test system of series [14] is Typhlodromus pyri. Nature of the series: LR50; higher = less toxic. Conditions: not reported; mortality.
For series [15], the system named is Aphidius rhopalosiphi. Nature of the series: LR50; higher = less toxic. The conditions noted are these: not reported; mortality.

Values after ≈ are worked out from the molar mass of the structure shown.

Usually NOAEL stands for the highest tested level that showed no adverse finding. Take `CCCN(CCC)c1c([N+](=O)[O-])cc(S(N)(=O)=O)cc1[N+](=O)[O-]` [Oryzalin]: the NOEC in series [1] came out at 0.36 mg/L; in series [4], 34.3 mg/kg; in series [5], 0.22 mg/L; in series [7], 1 mg/L; in [13] (chronic/long-term, duration: 56 days), 34.3 mg/kg. Also, the NOAEL in series [2] turned out to be 25 mg/kg-day; in series [9] (subchronic, duration: 90 days, hematological) it was 5 mg/kg-day; in series [12] it was 5 mg/kg-day. Moreover, the LD50 in series [3] (acute, oral, diet, mortality) is more than 691 mg/kg-day; in series [9] (acute, mortality), more than 5000 mg/kg-day; in series [10] it was 32 µg/piece; in series [11] (short-term, oral, feed, mortality), more than 1350 mg/kg-day. Moreover, the NOEL worked out at 28 mg/kg-day in [3] (reproduction developmental) and 41 mg/kg-day in series [11] (reproductive). The LC50 is 2.86 µg/mL (≈ 8.26 µM) in [6]; more than 3.04 µg/mL in series [8]; more than 103 mg/kg in series [13] (acute, duration: 14 days, mortality). Moreover, the LR50 is less than 3850 g/ha in series [14] and more than 3850 g/ha in series [15].

The values above are taken from EPA's ToxValDB 9.5 (doi:10.2903/j.efsa.2010.1707).
